Measured values: paper PMC6100582 (Molecules : A Journal of Synthetic Chemistry and Natural …, 2018)
pEC50, pIC50: −log10 of the molar value. In brackets after ≈: the same amount, converted by molar mass. Like-named read-outs stand apart in the source and are kept apart here.

Legend:
[1] = system: Candida albicans ATCC 90028; assay: In vitro antifungal susceptibility testing (MIC determination); assay type: cell-based; details: ATCC90028
Para-Influenza-3 Virus = assay: organism not typed; assay type: cell-based
Reovirus-1 = assay: Antiviral activity in Vero cell cultures; assay type: cell-based
Sindbis Virus = assay: microbe, parasite or virus in culture; assay type: cell-based; details: Vero
Coxsackie Virus B4 = assay: Antiviral activity in Vero cell cultures; assay type: cell-based; details: Enterovirus B
Punta Toro Virus = assay: microbe, parasite or virus in culture; assay type: cell-based
Yellow Fever Virus = assay: microbe, parasite or virus in culture; assay type: cell-based; details: Vero
Vero cell cultures = details: African green monkey
in vitro = details: African green monkey
[2] = system: Acinetobacter baumannii MFBF 10913; assay: Minimum biofilm eradication assay; assay type: cell-based
Method: (§1) MBECs of fumardiamides 4a–f and succindiamides 5a–f were determined as follows. Each well (96-well plate) was filled with 100 µl of bacterial (10^7 CFU/mL) or yeast (5 × 10^6 CFU/mL) suspension. When the inhibition of yeast biofilm formation was tested, the wells were pre-treated with fetal bovine serum (FBS) (250 µl per well). Negative controls contained broth only. Positive controls were performed using standard antimicrobial drugs gentamycin (Gen) and Amph, respectively. […] Following incubation period, each well was aspirated, washed three times and vigorously shaken to remove all non-adherent bacteria/yeast. The remaining attached cells were fixed with methanol (15 min) and the plates were left to dry overnight. Formed biofilm was stained with crystal violet (1%, 5 min). Excess stain was rinsed by placing the plate under running tap water and the plates were left to dry. Adherent cells were solubilized using ethanol. The absorbance was read at 570 nm. The MBEC value represents the lowest dilution of a compound at which bacteria fail to grow.

[3] = system: Bacillus cereus ATCC 11778; assay: Minimum biofilm eradication assay; assay type: cell-based
Method: as §1

[4] = system: Bacillus subtilis ATCC 6633; assay: Minimum biofilm eradication assay; assay type: cell-based
Method: as §1

[5] = system: Enterococcus faecalis ATCC 29212; assay: Minimum biofilm eradication assay; assay type: cell-based
Method: as §1

[6] = system: Escherichia coli ATCC 10536; assay: Minimum biofilm eradication assay; assay type: cell-based
Method: as §1

[7] = system: Proteus mirabilis MFBF 10430; assay: Minimum biofilm eradication assay; assay type: cell-based
Method: as §1

[8] = system: Pseudomonas aeruginosa ATCC 27853; assay: Minimum biofilm eradication assay; assay type: cell-based
Method: as §1

[9] = system: Salmonella enteritidis MFBF 11945; assay: Minimum biofilm eradication assay; assay type: cell-based
Method: as §1

[10] = system: Serratia marcescens ATCC 10905; assay: Minimum biofilm eradication assay; assay type: cell-based
Method: as §1

[11] = system: Staphylococcus aureus ATCC 6538; assay: Minimum biofilm eradication assay; assay type: cell-based
Method: as §1

[12] = system: Streptococcus pneumonia MFBF 10373; assay: Minimum biofilm eradication assay; assay type: cell-based, Streptococcus pneumoniae
Method: as §1

[13] = system: Capan-1 (pancreatic adenocarcinoma); assay: Antiproliferative screening (cytostatic activity); assay type: cell-based; details: Homo sapiens, CAPAN-1, 72 h, read-out: IC50 Capan-1
Method: (§2) All human tumor cell lines were acquired from the American Type Culture Collection (ATCC, Manassas, VA, USA), except for the DND-41 cell line which was purchased from the Deutsche Sammlung von Mikroorganismen und Zellkulturen (DSMZ Leibniz-Institut, Braunschweig, Germany) and the Hap1 cell line which was purchased from Horizon Discovery (Waterbeach, UK). […] All media were supplemented with 10% FBS (HyClone, GE Healthcare Life Sciences, USA). […] After overnight incubation, cells were treated with test compounds at four different concentrations ranging from 100 to 0.8 µM. […] Images were taken every 3 h, with one field image per well under 10× magnification. All compounds were tested with duplicate data points and averaged.

[14] = system: HCT-116 (colorectal carcinoma); assay: Antiproliferative screening (cytostatic activity); assay type: cell-based; details: Homo sapiens, HCT-116, 72 h, read-out: IC50 HCT-116
Method: as §2

[15] = system: K-562 (chronic myeloid leukemia); assay: Antiproliferative screening (cytostatic activity); assay type: cell-based; details: Homo sapiens, K562, 72 h, read-out: IC50 K-562
Method: as §2

MM.1S (multiple myeloma) = assay: Antiproliferative screening (cytostatic activity); assay type: cell-based; details: Homo sapiens, MM1.S, 72 h, read-out: IC50 MM.1S
Method: as §2

[16] = system: NCI-H460 (lung carcinoma); assay: Antiproliferative screening (cytostatic activity); assay type: cell-based; details: Homo sapiens, NCI-H460, 72 h, read-out: IC50 NCI-H460
Method: as §2

[17] = system: Z-138 (non-Hodgkin lymphoma); assay: Antiproliferative screening (cytostatic activity); assay type: cell-based; details: Homo sapiens, Z-138, 72 h, read-out: IC50 Z-138
Method: as §2

[18] = system: HL-60 (acute myeloid leukemia); assay: Antiproliferative screening (cytostatic activity); assay type: cell-based; details: Homo sapiens, HL-60, 72 h, read-out: IC50 HL-60
Method: (§3) Cytostatic activity was evaluated in vitro on nine different types of human tumor cell lines: Capan-1, Hap1, HCT-116, and NCI-H460, as well as hematological tumors such as DND-41, HL-60, K-562, MM.1S and Z-138 as described previously. All human tumor cell lines were acquired from the American Type Culture Collection (ATCC, Manassas, VA, USA), except for the DND-41 cell line which was purchased from the Deutsche Sammlung von Mikroorganismen und Zellkulturen (DSMZ Leibniz-Institut, Braunschweig, Germany) and the Hap1 cell line which was purchased from Horizon Discovery (Waterbeach, UK). Capan-1, Hap1, HL-60, K-562, Z-138, MM.1S and DND-41 were cultured in Iscove′s Modified Dulbecco′s Medium (IMDM, Gibco Life Technologies, Gaithersburg, MD, USA), HCT-116 were grown in McCoy′s 5A Medium (Gibco Life Technologies) and NCI-H460 were cultured in RPMI (Gibco Life Technologies). All media were supplemented with 10% FBS (HyClone, GE Healthcare Life Sciences, USA). Adherent cell lines HCT-116, Hap1, NCI-H460, and Capan-1 cells were seeded at a density between 400 and 1250 cells per well, in 384-well, black-walled, clear-bottomed tissue culture plates (Greiner Bio-One, Kremsmünster, Germany). After overnight incubation, cells were treated with test compounds at four different concentrations ranging from 100 to 0.8 µM. Suspension cell lines HL-60, K-562, Z-138, MM.1S, and DND-41 were seeded at densities ranging from 3000 to 10,000 cells per well in 384-well, black-walled, clear-bottomed tissue culture plates containing test compounds at the same four concentrations. The plates were incubated and monitored at 37 °C for 72 h in an IncuCyte (Essen BioScience Inc., Ann Arbor, MI, USA) for real-time imaging. Images were taken every 3 h, with one field image per well under 10× magnification. All compounds were tested with duplicate data points and averaged. […]

[19] = system: Hap1 (chronic myeloid leukemia); assay: Antiproliferative screening (cytostatic activity); assay type: cell-based; details: Homo sapiens, HAP1, 72 h, read-out: IC50 Hap1
Method: as §3

[20] = system: DND-41 (acute lymphoblastic leukemia); assay: Antiproliferative screening (cytostatic activity); assay type: cell-based, human; details: Homo sapiens, DND41, 72 h, read-out: IC50 DND-41
Method: as §3

[21] = system: Staphylococcus aureus ATCC 6538; assay: Antimicrobial susceptibility assay in vitro (MIC determination); assay type: cell-based; details: ATCC6538
[22] = system: Acinetobacter baumannii MFBF 10913; assay: as above; assay type: cell-based; details: MFBF10913, serial microdilution, 18 h, 35 °C
Method: (§4) Stock solutions of the tested compounds were prepared in DMSO (10 mg/mL). […] The absorbance was recorded at 540 nm. As a positive quality control (susceptibility of strains) tetracycline hydrochloride (TC) (Sigma-Aldrich) was added into wells.

[23] = system: Bacillus cereus ATCC 11778; assay: as above; assay type: cell-based; details: ATCC11778, serial microdilution, 18 h, 35 °C
Method: as §4

[24] = system: Bacillus subtilis ATCC 6633; assay: as above; assay type: cell-based; details: ATCC6633, serial microdilution, 18 h, 35 °C
Method: as §4

[25] = system: Streptococcus pneumoniae MFBF 10373; assay: as above; assay type: cell-based; details: MFBF10373, serial microdilution, 18 h, 35 °C
Method: as §4

[26] = Vero cells, MTS, read-out: EC50 Para-Influenza-3 Virus, MTS
[27] = Vero cells, MTS, read-out: EC50 Reovirus-1, MTS
[28] = Vero cells, visual CPE score, read-out: EC50 Reovirus-1, Visual CPE Score
[29] = read-out: EC50 Sindbis Virus, MTS
[30] = read-out: EC50 Sindbis Virus, Visual CPE Score
[31] = B4, Vero cells, MTS, read-out: EC50 Coxsackie Virus B4, MTS
[32] = B4, Vero cells, visual CPE score, read-out: EC50 Coxsackie Virus B4, Visual CPE Score
[33] = Vero cells, MTS, read-out: EC50 Punta Toro Virus, MTS
[34] = read-out: EC50 Yellow Fever Virus, MTS
[35] = read-out: EC50 Yellow Fever Virus, Visual CPE Score

Molecule	pEC50 (Para-Influenza-3 Virus; [26])	pEC50 (Reovirus-1; [27])	pEC50 (Reovirus-1; [28])	pEC50 (Sindbis Virus; [29])	pEC50 (Sindbis Virus; [30])	pEC50 (Coxsackie Virus B4; [31])	pEC50 (Coxsackie Virus B4; [32])	pEC50 (Punta Toro Virus; [33])	pEC50 (Yellow Fever Virus; [34])	pEC50 (Yellow Fever Virus; [35])	CC50 (in vitro)	MBEC [2]	MBEC [3]	MBEC [4]	MBEC [5]	MBEC [6]	MBEC [7]	MBEC [8]	MBEC [9]	MBEC [10]	also measured
C[C@@H]1[C@H](O)[C@@H](C)/C=C/C=C/C=C/C=C/C=C/C=C/C=C/[C@H](O[C@@H]2O[C@H](C)[C@@H](O)[C@H](N)[C@@H]2O)C[C@@H]2O[C@](O)(C[C@@H](O)C[C@@H](O)[C@H](O)CC[C@@H](O)C[C@@H](O)CC(=O)O[C@H]1C)C[C@H](O)[C@H]2C(=O)O [Amph, amphotericin B, reference compound]	–	–	–	–	–	–	–	–	–	–	–	–	–	–	–	–	–	–	–	–	MIC [1]: 0.5 µg/mL (≈ 0.541 µM)
COc1c(C)c2c(c(O)c1C/C=C(\C)CCC(=O)O)C(=O)OC2 [MPA, mycophenolic acid, reference compound]	6.00	6.22	6.10	4.92	5.77	< 4.00	< 4.00	4.96	6.30	6.10	> 100 µg/mL	–	–	–	–	–	–	–	–	–	pEC50 (Punta Toro Virus; Vero cells, visual CPE score, read-out: EC50 Punta Toro Virus, Visual CPE Score): 5.05; Cytotoxicity MCC (minimum cytotoxic concentration) (Vero cell cultures): >100
COc1cc(NC(C)CCCN)c2ncccc2c1 (stereo not drawn) [PQ, primaquine, reference compound]	< 4.30	–	–	< 4.30	–	–	–	< 4.30	< 4.30	–	–	50 µg/mL	70 µg/mL	80 µg/mL	>100 µg/mL	65 µg/mL	>100 µg/mL	65 µg/mL	70 µg/mL	>100 µg/mL	MBEC [11]: 50 µg/mL; MBEC [12]: 70 µg/mL; pEC50 (Reovirus-1; Vero, read-out: EC50 Reovirus-1, MTS): < 4.30; pEC50 (Coxsackie Virus B4; B4, Vero, read-out: EC50 Coxsackie Virus B4, MTS): < 4.30; pIC50 [13]: 4.73; pIC50 [14]: 4.51; pIC50 [15]: 4.45; pIC50 (MM.1S (multiple myeloma)): 4.55; pIC50 [16]: 4.28; pIC50 [17]: 5.15; pIC50 [18]: 5.66; pIC50 [19]: 4.37; pIC50 [20]: 4.94
NC(=O)c1ncn([C@@H]2O[C@H](CO)[C@@H](O)[C@H]2O)n1 [RIB, ribavirin, reference compound]	–	3.97	3.90	< 3.60	4.96	< 3.60	< 3.60	–	3.92	< 3.60	> 250 µg/mL	–	–	–	–	–	–	–	–	–	pEC50 (Para-Influenza-3 Virus; Vero, read-out: EC50 Para-Influenza-3 Virus, MTS): 4.14; pEC50 (Para-Influenza-3 Virus; Vero, read-out: EC50 Para-Influenza-3 Virus, Visual CPE Score): 3.95; pEC50 (Punta Toro Virus; Vero, read-out: EC50 Punta Toro Virus, MTS): 4.07; pEC50 (Punta Toro Virus; Vero, read-out: EC50 Punta Toro Virus, Visual CPE Score): 3.95
CN(C)[C@@H]1C(O)=C(C(N)=O)C(=O)[C@@]2(O)C(O)=C3C(=O)c4c(O)cccc4[C@@](C)(O)[C@H]3C[C@@H]12 [TC, tetracycline, reference compound]	–	–	–	–	–	–	–	–	–	–	–	–	–	–	–	–	–	–	–	–	MIC [21]: 0.3 µg/mL (≈ 0.675 µM); MIC [22]: 3 µg/mL (≈ 6.75 µM); MIC [23]: 0.3 µg/mL (≈ 0.675 µM); MIC [24]: 0.3 µg/mL (≈ 0.675 µM); MIC [25]: 0.3 µg/mL (≈ 0.675 µM)
gentamycin [reference compound]	–	–	–	–	–	–	–	–	–	–	–	25 µg/mL	50 µg/mL	50 µg/mL	50 µg/mL	25 µg/mL	50 µg/mL	50 µg/mL	50 µg/mL	50 µg/mL	MBEC [11]: 12.5 µg/mL; MBEC [12]: 25 µg/mL
